# Measurements taken from patent publication US12396459B2, “Synergistically effective herbicide composition comprising pyridate and at least one defined 4-HPPD inhibitor” (BELCHIM CROP PROTECTION NV, priority 2018, dated 2025).
# How the values were obtained:
# Type in all cases: in vivo
# Brassica napus = test: Field trial post-emergence in maize: BRSNN; conditions: # = 1, g a.c./ha: PYR 300, MES 100, PYR + MES 300 + 90
# Protocol: (§1) Herbicidal activity of herbicide compositions according to the first aspect of the present invention with regard to different types of unwanted vegetation was determined during trials performed on test fields (field trials). Individual compositions comprising pyridate and individual compositions comprising a defined 4-HPPD inhibitor are compared with a herbicide composition according to the invention comprising both pyridate and a defined 4-HPPD inhibitor. The expected activity of the combination of the active compounds pyridate and a defined 4-HPPD inhibitor is calculated according to above mentioned calculation method by Colby, in order to evaluate a synergistic effect between pyridate and a defined 4-HPPD inhibitor.
# (§2) Herbicidal activity was determined by applying herbicide compositions on emerged unwanted vegetation on fields where maize was cultivated. Pyridate and a defined 4-HPPD inhibitor were applied as a tank mixture by mixing these active compounds prior to use in a spray tank. The corresponding mixture was in the form of a spray liquor. Besides, spray liquors of individual compositions comprising pyridate and of individual compositions comprising a defined 4-HPPD inhibitor were used. Test plants of unwanted vegetation with a growth stage corresponding to BBCH 10-18 (according to the extended BBCH-scale) were sprayed with the active compound preparations such that particular desired amounts of active compounds are applied per unit area. Spray liquor was diluted with water to arrive at an application volume of 50 to 450 L/ha. At a specified number of days after application (DAA), the degree of damage to the unwanted vegetation is rated in % of plants of unwanted vegetation that were killed, which was assessed by visually controlling the plants.
# Cirsium arvense = test: Field trial post-emergence in maize: CIRAR; conditions: # = 1, g a.c./ha: PYR 300, MES 100, PYR + MES 300 + 90
# Protocol: as §1, §2
# Poa annua = test: Field trial post-emergence in maize: POAAN; conditions: for herbicidal effect (h.e.): g a.c./ha: PYR 300, MES 100, PYR + MES 300 + 90
# Protocol: as §1, §2
# Fallopia convolvulus = test: Field trial post-emergence in maize: POLCO
# Protocol: as §1, §2
# Portulaca oleracea = test: Field trial post-emergence in maize: POROL; conditions: # = 1, g a.c./ha: PYR 300, MES 100, PYR + MES 300 + 90
# Protocol: as §1, §2
# Solanum nigrum [1] = test: Field trial post-emergence in maize: SOLNI; conditions: for herbicidal effect (h.e.): g a.c./ha: PYR 300, MES 100, PYR + MES 300 + 90
# Protocol: as §1, §2
# Thlaspi arvense = test: Field trial post-emergence in maize: THLAR; conditions: # = 1, g a.c./ha: PYR 300, MES 100, PYR + MES 300 + 90
# Protocol: as §1, §2
# Xanthium spinosum = test: Field trial post-emergence in maize: XANSP; conditions: 7-14 DAA; # = 3; g a.c./ha: PYR 300, MES 100, PYR + MES 300 + 90
# Protocol: as §1
# Herbicidal activity was determined by applying herbicide compositions on emerged unwanted vegetation on fields where maize was cultivated. Pyridate and a defined 4-HPPD inhibitor were applied as a tank mixture by mixing these active compounds prior to use in a spray tank. The corresponding mixture was in the form of a spray liquor. […] At a specified number of days after application (DAA), the degree of damage to the unwanted vegetation is rated in % of plants of unwanted vegetation that were killed, which was assessed by visually controlling the plants.
# [2] = test system: Brassica rapa Canola cultivars; test: Field trial post-emergence in maize: BRSRC; conditions: 13-14 DAA, # = 1
# Protocol: as §1, §2
# Solanum nigrum [3] = test: Examples 6-8 herbicidal effect: SOLNI; conditions: 7 DAA
# Geranium dissectum = test: Examples 6-8 herbicidal effect: GERDI; conditions: 7 DAA
# Setaria verticillata [4] = test: Examples 6-8 herbicidal effect: SETVE; conditions: 7 DAA
# [5] = test system: unwanted vegetation (UVEG); test: Field trials Examples 1-5 (incl. Table 1), post-emergence on unwanted vegetation in maize; conditions: 14-20 DAA
# Protocol: as §1, §2
# Convolvulus arvensis = test: Field trial post-emergence in maize: CONAR
# Protocol: as §1, §2
# (§3) Example 1 concerns a herbicide composition comprising a combination of pyridate and mesotrione, which was applied post-emergence on unwanted vegetation on a field where maize was cultivated, according to the test conditions mentioned above.
# Setaria verticillata [6] = test: Field trial post-emergence in maize: SETVE
# Protocol: as §1, §2, §3
# Setaria viridis = test: Field trial post-emergence in maize: SETVI
# Protocol: as §1, §2, §3
# Viola arvensis = test: Field trial post-emergence in maize: VIOAR
# Protocol: as §1, §2, §3
# [7] = g a.c./ha: PYR 10, TEM 22, PYR + TEM 10 + 100
# [8] = g a.c./ha: PYR 300, PYR + MES 300 + 80
# [9] = g a.c./ha: PYR 300, SCT 300, PYR + SCT 300 + 300
# [10] = g a.c./ha: PYR 300, TEM 100, PYR + TEM 300 + 100
# [11] = g a.c./ha: PYR 450, SCT 450, PYR + SCT 300 + 450
# [12] = g a.c./ha: PYR 600, PYR + SCT 600 + 300
# [13] = g a.c./ha: PYR 900, TEM 44, PYR + TEM 900 + 44
structure (smiles),measurement,setting,value
"CCCCCCCCSC(=O)Oc1cc(Cl)nnc1-c1ccccc1 [PYR, (6-chloro-3-phenylpyridazin-4-yl) octylsulfanylformate]",herbicidal effect (h.e.),Brassica napus; 7-14 DAA,50%
same,herbicidal effect (h.e.),Brassica napus; 18-28 DAA,11%
same,herbicidal effect (h.e.),Brassica napus; 31-48 DAA,6%
same,herbicidal effect (h.e.),Cirsium arvense; 7-14 DAA,23%
same,herbicidal effect (h.e.),Cirsium arvense; 31-48 DAA,49%
same,herbicidal effect (h.e.),"Poa annua; 7-14 DAA, # = 2",25%
same,herbicidal effect (h.e.),"Poa annua; 18-28 DAA, # = 3",17%
same,herbicidal effect (h.e.),"Poa annua; 31-48 DAA, # = 2",17%
same,PYR h.e.,Poa annua; POAAN 14-20 DAA 300 g a.c./ha,7%
same,PYR h.e.,Poa annua; POAAN 14-20 DAA 600 g a.c./ha,17%
same,PYR h.e.,Poa annua; POAAN 14-20 DAA 900 g a.c./ha,36%
same,PYR h.e.,Poa annua; POAAN 24-31 DAA 300 g a.c./ha,5%
same,PYR h.e.,Poa annua; POAAN 24-31 DAA 600 g a.c./ha,13%
same,PYR h.e.,Poa annua; POAAN 24-31 DAA 900 g a.c./ha,28%
same,herbicidal effect (h.e.),"Fallopia convolvulus; 7-14 DAA, # = 5, g a.c./ha: PYR 300, MES 100, PYR + MES 300 + 90",26%
same,herbicidal effect (h.e.),"Fallopia convolvulus; 13-14 DAA, # = 1, g a.c./ha: PYR 450, MES 144, PYR + MES 450 + 144",23%
same,herbicidal effect (h.e.),"Fallopia convolvulus; 18-28 DAA, # = 8, g a.c./ha: PYR 300, MES 100, PYR + MES 300 + 90",32%
same,herbicidal effect (h.e.),"Fallopia convolvulus; 31-48 DAA, # = 8, g a.c./ha: PYR 300, MES 100, PYR + MES 300 + 90",27%
same,PYR h.e.,Fallopia convolvulus; POLCO 14-20 DAA 300 g a.c./ha,31%
same,PYR h.e.,Fallopia convolvulus; POLCO 14-20 DAA 600 g a.c./ha,34%
same,PYR h.e.,Fallopia convolvulus; POLCO 14-20 DAA 900 g a.c./ha,47%
same,PYR h.e.,Fallopia convolvulus; POLCO 24-31 DAA 300 g a.c./ha,29%
same,PYR h.e.,Fallopia convolvulus; POLCO 24-31 DAA 600 g a.c./ha,29%
same,PYR h.e.,Fallopia convolvulus; POLCO 24-31 DAA 900 g a.c./ha,43%
same,herbicidal effect (h.e.),Portulaca oleracea; 7-14 DAA,30%
same,herbicidal effect (h.e.),Portulaca oleracea; 18-28 DAA,11%
same,herbicidal effect (h.e.),"Solanum nigrum [1]; 18-28 DAA, # = 7",58%
same,herbicidal effect (h.e.),"Solanum nigrum [1]; 31-48 DAA, # = 6",55%
same,PYR h.e.,Solanum nigrum [1]; SOLNI 14-20 DAA 300 g a.c./ha,75%
same,PYR h.e.,Solanum nigrum [1]; SOLNI 14-20 DAA 600 g a.c./ha,88%
same,herbicidal effect (h.e.),Thlaspi arvense; 7-14 DAA,28%
same,herbicidal effect (h.e.),Thlaspi arvense; 18-28 DAA,19%
same,herbicidal effect (h.e.),Xanthium spinosum,5%
same,herbicidal effect (h.e.),"[2]; g a.c./ha: PYR 450, MES 144, PYR + MES 450 + 144",48%
same,herbicidal effect (h.e.),"[2]; g a.c./ha: PYR 450, TOP 12.4, PYR + TOP 450 + 12.4",48%
same,herbicidal effect (h.e.),Solanum nigrum [3]; [7],0%
same,herbicidal effect (h.e.),Solanum nigrum [3]; [8],11%
same,herbicidal effect (h.e.),Solanum nigrum [3]; [9],10%
same,herbicidal effect (h.e.),Solanum nigrum [3]; [10],10%
same,herbicidal effect (h.e.),Solanum nigrum [3]; [11],10%
same,herbicidal effect (h.e.),Solanum nigrum [3]; [12],28%
same,herbicidal effect (h.e.),Solanum nigrum [3]; [13],100%
same,herbicidal effect (h.e.),Geranium dissectum; [7],0%
same,herbicidal effect (h.e.),Geranium dissectum; [8],5%
same,herbicidal effect (h.e.),Geranium dissectum; [9],15%
same,herbicidal effect (h.e.),Geranium dissectum; [10],5%
same,herbicidal effect (h.e.),Geranium dissectum; [11],30%
same,herbicidal effect (h.e.),Geranium dissectum; [12],15%
same,herbicidal effect (h.e.),Geranium dissectum; [13],10%
same,herbicidal effect (h.e.),Setaria verticillata [4]; [7],0%
same,herbicidal effect (h.e.),Setaria verticillata [4]; [8],0%
same,herbicidal effect (h.e.),Setaria verticillata [4]; [9],10%
same,herbicidal effect (h.e.),Setaria verticillata [4]; [10],0%
same,herbicidal effect (h.e.),Setaria verticillata [4]; [11],7%
same,herbicidal effect (h.e.),Setaria verticillata [4]; [12],10%
same,herbicidal effect (h.e.),Setaria verticillata [4]; [13],0%
same,PYR h.e. (%),"[5]; VIOAR (Viola arvensis), # = 3, first VIOAR block (r259-264), PYR 900 g a.c./ha",50%
same,PYR h.e. (%),"[5]; VIOAR (Viola arvensis), # = 3, second VIOAR block (r265-272), PYR 300 g a.c./ha",27%
same,PYR h.e. (%),"[5]; VIOAR, # = 3, second VIOAR block (r265-272), PYR 600 g a.c./ha",34%
same,PYR h.e. (%),"[5]; VIOAR, # = 3, second VIOAR block (r265-272), PYR 900 g a.c./ha",47%
same,PYR h.e.,Convolvulus arvensis; CONAR 14-20 DAA 300 g a.c./ha,35%
same,PYR h.e.,Convolvulus arvensis; CONAR 14-20 DAA 600 g a.c./ha,40%
same,PYR h.e.,Convolvulus arvensis; CONAR 14-20 DAA 900 g a.c./ha,45%
same,PYR h.e.,Convolvulus arvensis; CONAR 24-31 DAA 600 g a.c./ha,48%
same,PYR h.e.,Convolvulus arvensis; CONAR 24-31 DAA 900 g a.c./ha,45%
same,PYR h.e.,Setaria verticillata [6]; SETVE 14-20 DAA 300 g a.c./ha,29%
same,PYR h.e.,Setaria verticillata [6]; SETVE 14-20 DAA 600 g a.c./ha,47%
same,PYR h.e.,Setaria verticillata [6]; SETVE 14-20 DAA 900 g a.c./ha,75%
same,PYR h.e.,Setaria verticillata [6]; SETVE 24-31 DAA 300 g a.c./ha,29%
same,PYR h.e.,Setaria verticillata [6]; SETVE 24-31 DAA 600 g a.c./ha,33%
same,PYR h.e.,Setaria verticillata [6]; SETVE 24-31 DAA 900 g a.c./ha,60%
same,PYR h.e.,Setaria viridis; SETVI 14-20 DAA 300 g a.c./ha,10%
same,PYR h.e.,Setaria viridis; SETVI 14-20 DAA 600 g a.c./ha,20%
same,PYR h.e.,Setaria viridis; SETVI 14-20 DAA 900 g a.c./ha,25%
same,PYR h.e.,Setaria viridis; SETVI 24-31 DAA 300 g a.c./ha,0%
same,PYR h.e.,Setaria viridis; SETVI 24-31 DAA 600 g a.c./ha,0%
same,PYR h.e.,Setaria viridis; SETVI 24-31 DAA 900 g a.c./ha,0%
same,PYR h.e.,Viola arvensis; VIOAR 14-20 DAA 300 g a.c./ha,31%
same,PYR h.e.,Viola arvensis; VIOAR 14-20 DAA 600 g a.c./ha,34%
same,PYR h.e.,Viola arvensis; VIOAR 14-20 DAA 900 g a.c./ha,50%
